Blank lines part the entries; values can stand above or below the compound they belong to.
Assays:
[1] = target: protein-protein interaction between SOS1 and KRAS G12D (Homo sapiens (Human), UniProt Q07889); test: KRAS::SOS1 AlphaScreen Binding Assay
Description: KRAS::SOS1 AlphaScreen Binding Assay
Low IC50 values are indicative of high potency of the SOS1 inhibitor compound in this assay setting:
Reagents: • GST-tagged SOS1 (564_1049_GST_TEV_ECO) produced in-house • GST-TEV-SOS1 (564-1049) is purchased from Viva Biotech Ltd. • 6×His-Tev-K-RasG12D(1-169)Avi is purchased from Xtal BioStructures, Inc. (Lot # X129-110) • GDP (Sigma Cat No G7127) • AlphaLISA Glutathione Acceptor Beads (PerkinElmer, Cat No AL109) • AlphaScreen Streptavidin Donor Beads (PerkinElmer Cat No 6760002) • Assay plates: Proxiplate-384 PLUS, white (PerkinElmer, Cat No 6008289)
10 nM (final assay concentration) KRAS G12D, 10 μM (final assay concentration) GDP and 5 nM (final assay concentration) GST-SOS1 are mixed in assay buffer prior to use and kept at room temperature.
AlphaLISA Glutathione Acceptor Beads and AlphaScreen Streptavidin Donor Beads are mixed in assay buffer at a concentration of 10 μg/mL (final assay concentration) each prior to use and kept at room temperature.
Compounds are diluted to a final start concentration of 100 μM and are tested in duplicate. Assay-ready plates (ARPs) are generated using an Access Labcyte Workstation with a Labcyte Echo 550 or 555 accoustic dispenser. For compound a start concentration of 100 μM, 150 nL of compound solution is transferred per well in 11 concentrations in duplicate with serial 1:5 dilutions.
The assay is run using a fully automated robotic system in a darkened room below 100 Lux. 10 μL of KRAS::SOS1 GDP mix is added into columns 1-24 to the 150 nL of compound solution (final dilution in the assay 1:100, final DMSO concentration 1%).
After a 30 minute incubation time 5 μL of bead mix is added into columns 1-23. Plates are kept at room temperature in a darkened incubator. After a further 60 minute incubation, the signal is measured using a PerkinElmer Envision HTS Multilabel Reader using the AlphaScreen specifications from PerkinElmer. Each plate contains the following controls: • diluted DMSO+KRAS::SOS1 GDP mix+bead mix • diluted DMSO+KRAS::SOS1 GDP mix
IC50 values are calculated and analyzed using a 4 parametric logistic model.

[2] = test system: ERK phosphorylation in DLD-1 cells (KRAS G13D); test: ERK Phosphorylation Assay (AlphaLISA SureFire Ultra p-ERK1/2); assay type: cell-based; conditions: Homo sapiens, 1 h compound, EGF 50 ng/mL 10 min, read-out: pERK
Experimental: ERK Phosphorylation Assay
Low IC50 values are indicative of high potency of the SOS1 inhibitor compounds in this assay setting.
ERK phosphorylation assays are performed using the following human cell lines: DLD-1 (ATCC CCL-221): human colon cancer with a KRAS G13D mutation;
DLD-1 cells (ATCC CCL-221) are seeded at 50,000 cells per well in/60 μL of RPMI with 10% FBS, non-essential amino acids, pyruvate and glutamax in Greiner TC 384 plates. The cells are incubated for 1 h at room temperature and then incubated overnight in an incubator at 37° C. and 5% CO2 in a humidified atmosphere. 60 nL compound solution (10 mM DMSO stock solution) is then added using a Labcyte Echo 550 device. After a 1 h incubation in the aforementioned incubator, 3 μL Epidermal Growth Factor (EGF, final concentration 50 ng/mL) is added. 10 minutes later the medium is removed, and the cells lysed by addition of 20 μL of 1.6-fold lysis buffer from the AlphaLISA SureFire Ultra pERK1/2 (Thr202/Tyr204) Assay Kit with added protease inhibitors, 100 nM trametinib+100 nM staurosporine. After 20 minutes of incubation at room temperature with shaking, 6 μL of each lysate sample is transferred to a 384-well Proxiplate and analyzed for pERK (Thr202/Tyr204) with the AlphaLISA SureFire Ultra pERK1/2 (Thr202/Tyr204) Assay Kit. 3 μL Acceptor Mix and 3 μL Donor Mix are added under subdued light and incubated for 2 h at room temperature in the dark, before the signal is measured on a Perkin Elmer Envision plate reader using 384 AlphaScreen settings for Proxiplates. Data are fitted by iterative calculation with variable hill slope. The sigmoidal curve slope is fitted using a default fitting curve to ascertain IC50 values.

[3] = KRAS G12D::SOS1 AlphaScreen, measured without EDTA unless marked with an asterisk
[4] = Table 20, KRAS::SOS1 AlphaScreen (SOS1 / KRAS G12D)

Sequence of protein-protein interaction between SOS1 and KRAS G12D (Q07889 564-1049, stated change not applied): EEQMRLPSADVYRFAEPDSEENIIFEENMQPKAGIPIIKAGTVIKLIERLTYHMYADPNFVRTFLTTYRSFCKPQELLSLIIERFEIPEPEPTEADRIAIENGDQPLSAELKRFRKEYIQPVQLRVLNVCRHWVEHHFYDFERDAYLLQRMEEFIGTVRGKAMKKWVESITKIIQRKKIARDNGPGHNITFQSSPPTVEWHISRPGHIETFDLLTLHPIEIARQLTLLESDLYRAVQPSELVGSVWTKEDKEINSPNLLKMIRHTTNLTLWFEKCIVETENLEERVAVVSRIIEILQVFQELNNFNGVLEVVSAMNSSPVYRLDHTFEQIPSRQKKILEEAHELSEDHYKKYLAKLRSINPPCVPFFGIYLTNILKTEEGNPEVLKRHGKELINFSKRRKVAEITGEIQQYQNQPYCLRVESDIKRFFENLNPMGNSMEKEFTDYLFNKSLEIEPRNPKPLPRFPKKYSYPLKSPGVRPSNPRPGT

Compound: C[C@@H](Nc1ncnc2cc(=O)n(C3(C)CC3)cc12)c1cccc2c1CCC2(F)F [I-104]
IC50 [1, 3]: 4 nM
IC50 [2]: 87 nM

Compound: Cc1c(=O)n(C23CCC(CC2)C3)cc2c(N[C@H](C)c3cccc4c3CCC4(F)F)ncnc12 [I-177]
IC50 [1, 3]: 2 nM
IC50 [2]: 91 nM

Compound: Cc1nc(N[C@H](C)c2cccc(C(F)F)c2F)c2cn(C34CCC(F)(CC3)CC4)c(=O)cc2n1 [I-121]
IC50 [1, 3]: 5 nM
IC50 [2]: 93 nM

Compound: Cc1nc(N[C@H](C)c2cccc(C(F)(F)F)c2C)c2cn(C3(CF)CC3)c(=O)cc2n1 [I-38]
IC50 [2]: 33 nM

Compound: Cc1nc(N[C@H](C)c2cccc(C(F)(F)F)c2C)c2cn(C3(C(F)(F)F)CC3)c(=O)cc2n1 [I-39]
IC50 [1, 4]: 18 nM
IC50 [2]: 62 nM

Compound: Cc1nc(N[C@H](C)c2cccc(C(F)(F)CO)c2F)c2cn(C34CCC(CC3)CC4)c(=O)cc2n1 [I-130]
IC50 [1, 3]: 1 nM
IC50 [2]: 38 nM

Compound: Cc1nc(N[C@H](C)c2cccc(C(F)F)c2C)c2cn(C3(C)CCC3)c(=O)cc2n1 [I-23]
IC50 [1, 4]: 4 nM
IC50 [2]: 111 nM

Compound: Cc1nc(N[C@H](C)c2cccc(C(F)F)c2C)c2cn(C3(C)CC3)c(=O)c(C)c2n1 [I-157]
IC50 [1, 3]: 5 nM
IC50 [2]: 104 nM

Compound: Cc1nc(N[C@H](C)c2cccc(C(F)F)c2C)c2cn(C3(C(F)F)CC3)c(=O)cc2n1 [I-21]
IC50 [1, 4]: 3 nM
IC50 [2]: 113 nM

Compound: C[C@@H](Nc1ncnc2cc(=O)n(C34CC(C3)C4)cc12)c1cccc2c1CCC2(F)F [I-106]
IC50 [1, 3]: 4 nM
IC50 [2]: 113 nM

Compound: Cc1c(=O)n(C23CCC(F)(CC2)CC3)cc2c(N[C@H](C)c3cccc(C(F)F)c3F)ncnc12 [I-171]
IC50 [1, 3]: 6 nM
IC50 [2]: 93 nM

Compound: C[C@@H](Nc1ncnc2cc(=O)n(C34CCC(F)(CC3)CC4)cc12)c1cccc(C(F)F)c1F [I-73]
IC50 [1, 4]: 3 nM
IC50 [2]: 88 nM

Compound: CCC1(n2cc3c(N[C@H](C)c4cccc(C(F)F)c4F)nc(C)nc3cc2=O)CC1 [I-5]
IC50 [1, 4]: 12 nM

Compound: Cc1c(=O)n(C23CC(F)(C2)C3)cc2c(N[C@H](C)c3cccc(C(F)(F)C(C)(C)O)c3F)ncnc12 [I-178]
IC50 [1, 3]: 5 nM

Compound: Cc1c(=O)n([C@H]2C[C@H](F)C2)cc2c(N[C@H](C)c3cccc(C(F)F)c3F)ncnc12 [I-168]
IC50 [1, 3]: 9 nM

Compound: Cc1nc(N[C@H](C)c2cccc(C(C)(F)F)c2F)c2cn(C3(C(F)(F)F)CC3)c(=O)cc2n1 [I-55]
IC50 [1, 4]: 13 nM

Compound: Cc1nc(N[C@H](C)c2cccc(C(F)F)c2F)c2cn(C3(C(F)F)CC3)c(=O)c(F)c2n1 [I-82]
IC50 [1, 4]: 5 nM

Compound: C[C@@H](Nc1ncnc2cc(=O)n(C34CC(C3)C4)cc12)c1cccc2c1CCC2=O [I-107]
IC50 [1, 3]: 17 nM

Other lines, results leading:

IC50 [1, 4]: 4 nM
IC50 [2]: 96 nM
Compound: Cc1nc(N[C@H](C)c2cccc(C(C)(F)F)c2F)c2cn(C3(C)CC3)c(=O)cc2n1 [I-52]

IC50 [1, 4]: 1 nM
IC50 [2]: 95 nM
Compound: Cc1nc(N[C@H](C)c2cccc(C(F)(F)CO)c2F)c2cn(C34CCC(CC3)C4)c(=O)cc2n1 [I-61]

IC50 [1, 3]: 2 nM
IC50 [2]: 85 nM
Compound: Cc1nc(N[C@H](C)c2cccc(C(F)F)c2C)c2cn(C34CCC(C(=O)N(C)C)(CC3)CC4)c(=O)cc2n1 [I-124]

IC50 [1, 3]: 4 nM
IC50 [2]: 57 nM
Compound: Cc1nc(N[C@H](C)c2cccc(C(F)F)c2F)c2cn(C34CCC(O)(CC3)CC4)c(=O)c(C)c2n1 [I-156]

IC50 [1, 3]: 10 nM
IC50 [2]: 120 nM
Compound: Cc1c(=O)n(C23CC(F)(C2)C3)cc2c(N[C@H](C)c3cccc(C(C)(F)F)c3F)ncnc12 [I-176]

IC50 [1, 4]: 2 nM
IC50 [2]: 89 nM
Compound: Cc1nc(N[C@H](C)c2cccc3c2CCC3(F)F)c2cn(C3(C(F)F)CC3)c(=O)cc2n1 [I-58]

IC50 [1, 4]: 4 nM
IC50 [2]: 67 nM
Compound: Cc1nc(N[C@H](C)c2cccc3c2OCC3(F)F)c2cn(C3(C(F)F)CC3)c(=O)cc2n1 [I-102]

IC50 [1, 4]: 9 nM
Compound: Cc1nc(N[C@H](C)c2cccc(C(F)(F)F)c2C)c2cn([C@H]3[C@@H]4COC[C@@H]43)c(=O)cc2n1 [I-40]

IC50 [1, 4]: 12 nM
Compound: Cc1nc(N[C@H](C)c2cccc(C(F)(F)F)c2F)c2cn([C@H]3[C@@H]4COC[C@@H]43)c(=O)cc2n1 [I-32]

From US10829487B2, “Benzylamino substituted pyridopyrimidinones and derivatives as SOS1 inhibitors” (Boehringer Ingelheim International GmbH, priority 2017, dated 2020)
